The values below come from patent US11759462B2, “Spirocyclic compounds as tryptophan hydroxylase inhibitors” (priority 2013, dated 2023).

This assay concerns the target T1, Recombinant human TPH1 (MBP tagged) (Homo sapiens, UniProt P17752).
T1 construct: cloning full length human TPH1 cDNA in to a bacterial pMAL-c5E expression vector; made in house; host or cells: E. coli BL21 (DE3)
T1 sequence (P17752 1-444): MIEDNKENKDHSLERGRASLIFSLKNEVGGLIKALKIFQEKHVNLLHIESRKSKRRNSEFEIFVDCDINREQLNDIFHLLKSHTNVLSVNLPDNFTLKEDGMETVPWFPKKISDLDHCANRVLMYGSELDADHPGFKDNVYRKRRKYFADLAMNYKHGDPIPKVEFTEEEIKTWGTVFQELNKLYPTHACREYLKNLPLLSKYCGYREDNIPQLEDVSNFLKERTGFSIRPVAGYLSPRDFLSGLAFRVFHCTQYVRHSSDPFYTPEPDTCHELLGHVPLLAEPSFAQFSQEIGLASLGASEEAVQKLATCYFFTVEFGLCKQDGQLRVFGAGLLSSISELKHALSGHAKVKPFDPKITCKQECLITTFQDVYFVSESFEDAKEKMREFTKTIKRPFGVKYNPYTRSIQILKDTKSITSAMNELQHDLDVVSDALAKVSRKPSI
In words: TPH1 in vitro inhibition assay (kinetic fluorescence). In kind it is biochemical. Conditions: read-out: TPH1 Range (TPH1 inhibition IC50). An outline of the steps: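 Final mix: 15 nM MBP-TPH1, 30 μM Trp, 36 μM 6-methyltetrahydropterin, 25 μM ferrous ammonium sulfate, 50 mM MES pH 7.1, 1% DMSO, room temperature.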
As a reminder, the IC50 is the concentration that inhibits the measured activity by half. As for `Cc1cc(Cl)ccc1-c1ccc([C@@H](Oc2cc(N3CCC4(CC3)CN[C@H](C(=O)O)C4)nc(N)n2)C(F)(F)F)cc1` [Example 55cp, (S)-8-(2-amino-6-((R)-1-(4′-chloro-2′-methyl-[1,1′-biphenyl]-4-yl)-2,2,2-trifluoroethoxy)pyrimidin-4-yl)-2,8-diazaspiro[4.5]decane-3-carboxylic acid], the IC50 lay within 300 to 3000 nM.

Turning to `Cc1cc(C)cc(-c2ccc([C@@H](Oc3cc(N4CCC5(CC4)CN[C@H](C(=O)O)C5)nc(N)n3)C(F)(F)F)cc2)c1` [Example 55cq, (S)-8-(2-amino-6-((R)-1-(3′,5′-dimethyl-[1,1′-biphenyl]-4-yl)-2,2,2-trifluoroethoxy)pyrimidin-4-yl)-2,8-diazaspiro[4.5]decane-3-carboxylic acid], the half-inhibitory concentration (IC50) fell in the range of 50 to 300 nM.

For `Nc1nc(O[C@H](c2ccc(-c3ccc(F)c(F)c3)cc2)C(F)(F)F)cc(N2CCC3(CC2)CN[C@H](C(=O)O)C3)n1` [Example 55cr, (S)-8-(2-amino-6-((R)-1-(3′,4′-difluoro-[1,1′-biphenyl]-4-yl)-2,2,2-trifluoroethoxy)pyrimidin-4-yl)-2,8-diazaspiro[4.5]decane-3-carboxylic acid], the IC50 was in the range of 300 to 3000 nM.

Take `Cc1ccc(C)c(-c2ccc([C@@H](Oc3cc(N4CCC5(CC4)CN[C@H](C(=O)O)C5)nc(N)n3)C(F)(F)F)cc2)c1` [Example 55cs, (S)-8-(2-amino-6-((R)-1-(2′,5′-dimethyl-[1,1′-biphenyl]-4-yl)-2,2,2-trifluoroethoxy)pyrimidin-4-yl)-2,8-diazaspiro[4.5]decane-3-carboxylic acid]: the IC50 was 300 to 3000 nM.

As to `CCCCc1ccc(-c2ccc([C@@H](Oc3cc(N4CCC5(CC4)CN[C@H](C(=O)O)C5)nc(N)n3)C(F)(F)F)cc2)cc1` [Example 55ct, (S)-8-(2-amino-6-((R)-1-(4′-butyl-[1,1′-biphenyl]-4-yl)-2,2,2-trifluoroethoxy)pyrimidin-4-yl)-2,8-diazaspiro[4.5]decane-3-carboxylic acid], the IC50 lay within 300 to 3000 nM.

Consider `Cc1ccc(-c2ccc([C@@H](Oc3cc(N4CCC5(CC4)CN[C@H](C(=O)O)C5)nc(N)n3)C(F)(F)F)cc2)cc1F` [Example 55cu, (S)-8-(2-amino-6-((R)-2,2,2-trifluoro-1-(3′-fluoro-4′-methyl-[1,1′-biphenyl]-4-yl)ethoxy)pyrimidin-4-yl)-2,8-diazaspiro[4.5]decane-3-carboxylic acid], for which the IC50 lay within 300 to 3000 nM.

Regarding `CS(=O)(=O)c1ccc(-c2ccc([C@@H](Oc3cc(N4CCC5(CC4)CN[C@H](C(=O)O)C5)nc(N)n3)C(F)(F)F)cc2)cc1` [Example 55cv, (S)-8-(2-amino-6-((R)-2,2,2-trifluoro-1-(4′-(methylsulfonyl)-[1,1′-biphenyl]-4-yl)ethoxy)pyrimidin-4-yl)-2,8-diazaspiro[4.5]decane-3-carboxylic acid], the IC50 was 300 to 3000 nM.

As to `Cc1ccc(-c2ccc([C@@H](Oc3cc(N4CCC5(CC4)CN[C@H](C(=O)O)C5)nc(N)n3)C(F)(F)F)cc2)cc1` [Example 55cw, (S)-8-(2-amino-6-((R)-2,2,2-trifluoro-1-(4′-methyl-[1,1′-biphenyl]-4-yl)ethoxy)pyrimidin-4-yl)-2,8-diazaspiro[4.5]decane-3-carboxylic acid], the half-maximal inhibitory concentration (IC50) fell in the range of 300 to 3000 nM.

For `Cc1cccc(-c2ccc([C@@H](Oc3cc(N4CCC5(CC4)CN[C@H](C(=O)O)C5)nc(N)n3)C(F)(F)F)cc2)c1` [Example 55cx, (S)-8-(2-amino-6-((R)-2,2,2-trifluoro-1-(3′-methyl-[1,1′-biphenyl]-4-yl)ethoxy)pyrimidin-4-yl)-2,8-diazaspiro[4.5]decane-3-carboxylic acid], the IC50 is 300 to 3000 nM.

For the molecule `Nc1nc(O[C@H](c2ccc(-c3ccc(Cl)cc3)cc2)C(F)(F)F)cc(N2CCC3(CC2)CN[C@H](C(=O)O)C3)n1` [Example 55cy, (S)-8-(2-amino-6-((R)-1-(4′-chloro-[1,1′-biphenyl]-4-yl)-2,2,2-trifluoroethoxy)pyrimidin-4-yl)-2,8-diazaspiro[4.5]decane-3-carboxylic acid], the half-inhibitory concentration (IC50) was 300 to 3000 nM.
